This passage reports IC50 and Ki results from patent US9873709B2 (priority 2013, dated 2018).

Counter-ions that a name gives are not always drawn.

The IC50 is the concentration that gives 50% inhibition. The Ki is the dissociation constant of the complex between target and ligand, obtained from inhibition or displacement.

Chain of isolated recombinant JAK2 kinase domain (O60674 849-1124): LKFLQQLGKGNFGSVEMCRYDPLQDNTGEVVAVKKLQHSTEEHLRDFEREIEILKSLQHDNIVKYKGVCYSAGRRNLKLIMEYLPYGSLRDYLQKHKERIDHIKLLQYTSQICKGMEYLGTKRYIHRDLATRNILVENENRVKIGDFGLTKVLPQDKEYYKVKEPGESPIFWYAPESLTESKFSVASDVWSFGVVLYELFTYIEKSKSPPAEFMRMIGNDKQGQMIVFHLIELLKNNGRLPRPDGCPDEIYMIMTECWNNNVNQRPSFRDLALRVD

For one test, the system named is JAK1-dependent STAT6 phosphorylation downstream of IL-13 stimulation in TF-1 human erythroleukemia cells. The test can be described thus: cells. The following applies: TF-1, read-out: IL-13-pSTAT6 IC50.
For the compound `COC1(c2ccccc2)CCN(c2cccn3nc(Nc4ccc(C(=O)N(C)C5CCN(C)CC5)cc4)nc23)CC1` [Example 1-5, 4-[[8-(4-methoxy-4-phenyl-1-piperidyl)-[1,2,4]triazolo[1,5-a]pyridin-2-yl]amino]-N-methyl-N-(1-methyl-4-piperidyl)benzamide; hydrochloride], the IC50 stood at 767 nM.
Same read-out and setting: under `COC1CCN(c2cccn3nc(Nc4ccc(C(=O)N(C)C5CCN(C)CC5)cc4)nc23)CC1` [Example 1-8, 4-[[8-(4-methoxy-1-piperidyl)-[1,2,4]triazolo[1,5-a]pyridin-2-yl]amino]-N-methyl-N-(1-methyl-4-piperidyl)benzamide] stands 756 nM.

The next test concerns the target isolated recombinant JAK2 kinase domain (Homo sapiens (Human), UniProt O60674).
Experiment: not given
The following applies: read-out: JAK2 Ki.
As for `CN1CCC(N(C)C(=O)c2ccc(Nc3nc4c(Oc5ccccc5)cccn4n3)cc2)CC1` [Example 1-248, N-Methyl-N-(1-methyl-piperidin-4-yl)-4-(8-phenoxy-[1,2,4]triazolo[1,5-a]pyridine-2-ylamino)-benzamide], the inhibitory constant (Ki) is 22.1 nM.
Turning to `CN1CCC(N(C)C(=O)c2ccc(Nc3nc4c(Oc5ccc6oc(=O)n(Cc7ccccc7)c6c5)cccn4n3)cc2)CC1` [Example 1-264, 4-([8-[(3-benzyl-2-oxo-2,3-dihydro-1,3-benzoxazol-5-yl)oxy]-[1,2,4]triazolo[1,5-a]pyridin-2-yl]amino)-N-methyl-N-(1-methylpiperidin-4-yl)benzamide], the inhibitory constant (Ki) is 121 nM.

The test is the same for the next values; noted with them: read-out: JAK2 Ki; isolated recombinant JAK2 kinase domain, 25 μM ATP.
On to `COC1(c2ccccc2)CCN(c2cccn3nc(Nc4ccc(C(=O)N(C)C5CCN(C)CC5)cc4)nc23)CC1` [Example 1-5, 4-[[8-(4-methoxy-4-phenyl-1-piperidyl)-[1,2,4]triazolo[1,5-a]pyridin-2-yl]amino]-N-methyl-N-(1-methyl-4-piperidyl)benzamide; hydrochloride], for which the inhibition constant Ki amounted to 5.15 nM.
Same read-out and setting: in the case of `COC1CCN(c2cccn3nc(Nc4ccc(C(=O)N(C)C5CCN(C)CC5)cc4)nc23)CC1` [Example 1-8, 4-[[8-(4-methoxy-1-piperidyl)-[1,2,4]triazolo[1,5-a]pyridin-2-yl]amino]-N-methyl-N-(1-methyl-4-piperidyl)benzamide] it was 23.1 nM; in that of `CN1CCC(N(C)C(=O)c2ccc(Nc3nc4c(N5CCN6CCOC[C@@H]6C5)cccn4n3)cc2)CC1` [Example 1-25, 4-[[8-[(9aS)-3,4,6,7,9,9a-hexahydro-1H-pyrazino[2,1-c][1,4]oxazin-8-yl]-[1,2,4]triazolo[1,5-a]pyridin-2-yl]amino]-N-methyl-N-(1-methyl-4-piperidyl)benzamide], 49.1 nM; in that of `CN1CCC(N(C)C(=O)c2ccc(Nc3nc4c(N5CCC6(CC5)CNC(=O)C6)cccn4n3)cc2)CC1` [Example 1-27, N-methyl-N-(1-methyl-4-piperidyl)-4-[[8-(3-oxo-2,8-diazaspiro[4.5]decan-8-yl)-[1,2,4]triazolo[1,5-a]pyridin-2-yl]amino]benzamide], 17.2 nM.
Turning to `CN1CCC(N(C)C(=O)c2ccc(Nc3nc4c(N5CCC6(CC5)CNC(=O)O6)cccn4n3)cc2)CC1` [Example 1-28, N-methyl-N-(1-methyl-4-piperidyl)-4-[[8-(2-oxo-1-oxa-3,8-diazaspiro[4.5]decan-8-yl)-[1,2,4]triazolo[1,5-a]pyridin-2-yl]amino]benzamide], the Ki was found to be 8.21 nM.
Consider `CN1CCC(N(C)C(=O)c2ccc(Nc3nc4c(N5CCN6C(=O)NCCC6C5)cccn4n3)cc2)CC1` (centres unmarked) [Example 1-31, N-methyl-N-(1-methyl-4-piperidyl)-4-[[8-(6-oxo-3,4,7,8,9,9a-hexahydro-1H-pyrazino[1,2-c]pyrimidin-2-yl)-[1,2,4]triazolo[1,5-a]pyridin-2-yl]amino]benzamide], for which the Ki worked out at 52.4 nM.
Same read-out and setting: in the case of `CN1CCC(N(C)C(=O)c2ccc(Nc3nc4c(N5CCN6C(=O)COC[C@@H]6C5)cccn4n3)cc2)CC1` [Example 1-32, 4-[[8-[(9aS)-4-oxo-6,7,9,9a-tetrahydro-1H-pyrazino[2,1-c][1,4]oxazin-8-yl]-[1,2,4]triazolo[1,5-a]pyridin-2-yl]amino]-N-methyl-N-(1-methyl-4-piperidyl)benzamide] it was 28.8 nM.
Turning to `CN1CCC(N(C)C(=O)c2ccc(Nc3nc4c(N5CCN6C(=O)COC[C@H]6C5)cccn4n3)cc2)CC1` [Example 1-33, 4-[[8-[(9aR)-4-oxo-6,7,9,9a-tetrahydro-1H-pyrazino[2,1-c][1,4]oxazin-8-yl]-[1,2,4]triazolo[1,5-a]pyridin-2-yl]amino]-N-methyl-N-(1-methyl-4-piperidyl)benzamide], the inhibition constant Ki was 38.7 nM.
Still for that read-out and setting: under `CN1CCC(N(C)C(=O)c2ccc(Nc3nc4c(N5CCC(O)(c6ccccc6Cl)CC5)cccn4n3)cc2)CC1` [Example 1-35, 4-[[8-[4-(2-chlorophenyl)-4-hydroxy-1-piperidyl]-[1,2,4]triazolo[1,5-a]pyridin-2-yl]amino]-N-methyl-N-(1-methyl-4-piperidyl)benzamide] stands 27.7 nM; under `Cc1ccc(C2(O)CCN(c3cccn4nc(Nc5ccc(C(=O)N(C)C6CCN(C)CC6)cc5)nc34)CC2)cc1` [Example 1-39, 4-[[8-[4-hydroxy-4-(p-tolyl)-1-piperidyl]-[1,2,4]triazolo[1,5-a]pyridin-2-yl]amino]-N-methyl-N-(1-methyl-4-piperidyl)benzamide], 3.52 nM.
The same measure, in the same setting: in the case of `COc1ccc(C2(O)CCN(c3cccn4nc(Nc5ccc(C(=O)N(C)C6CCN(C)CC6)cc5)nc34)CC2)cc1` [Example 1-40, 4-[[8-[4-hydroxy-4-(4-methoxyphenyl)-1-piperidyl]-[1,2,4]triazolo[1,5-a]pyridin-2-yl]amino]-N-methyl-N-(1-methyl-4-piperidyl)benzamide] it was 4.58 nM.
Still for that read-out and setting: in the case of `CN1CCC(N(C)C(=O)c2ccc(Nc3nc4c(N5CCC(C(=O)N6CC(C)(C)C6)CC5)cccn4n3)cc2)CC1` [Example 1-42, 4-{8-[4-(3,3-Dimethyl-azetidine-1-carbonyl)-piperidin-1-yl]-1,8a-dihydro [1,2,4]triazolo[1,5a]pyridine-2-ylamino}-N-methyl-N-(1-methyl-piperidin-4-yl)-benzamide] it was 1090 nM; in that of `CN1CCC(N(C)C(=O)c2ccc(Nc3nc4c(N5CCC(C#N)(c6ccccc6)CC5)cccn4n3)cc2)CC1` [Example 1-45, 4-[[8-(4-cyano-4-phenyl-1-piperidyl)-[1,2,4]triazolo[1,5-a]pyridin-2-yl]amino]-N-methyl-N-(1-methyl-4-piperidyl)benzamide], 20.4 nM.
As for `CN1CCC(N(C)C(=O)c2ccc(Nc3nc4c(N5CCc6ccccc6C5)cccn4n3)cc2)CC1` [Example 1-46, 4-[[8-(3,4-dihydro-1H-isoquinolin-2-yl)-[1,2,4]triazolo[1,5-a]pyridin-2-yl]amino]-N-methyl-N-(1-methyl-4-piperidyl)benzamide], the Ki stood at 10.1 nM.
The same measure, in the same setting: under `O=C(c1ccc(Nc2nc3c(N4CCC(O)(c5ccc(Cl)cc5)CC4)cccn3n2)cc1)N1CCN(c2ccccn2)CC1` [Example 1-112, [4-[[8-[4-(4-chlorophenyl)-4-hydroxy-1-piperidyl]-[1,2,4]triazolo[1,5-a]pyridin-2-yl]amino]phenyl]-[4-(2-pyridyl)piperazin-1-yl]methanone] stands 3.8 nM; under `CN1CCC(N(C)C(=O)c2ccc(Nc3nc4c(N5CCC(CC#N)(C6CCCC6)CC5)cccn4n3)cc2)CC1` [Example 1-257, 4-([8-[4-(cyanomethyl)-4-cyclopentylpiperidin-1-yl]-[1,2,4]triazolo[1,5-a]pyridin-2-yl]amino)-N-methyl-N-(1-methylpiperidin-4-yl)benzamide], 2.34 nM.
On the same count and under the same terms, under `CN1CCC(N(C)C(=O)c2ccc(Nc3nc4c(N5CCC(C)(C(=O)NCc6ccccc6)CC5)cccn4n3)cc2)CC1` [Example 1-259, N-benzyl-4-methyl-1-[2-[4-[methyl-(1-methyl-4-piperidyl)carbamoyl]anilino]-[1,2,4]triazolo[1,5-a]pyridin-8-yl]piperidine-4-carboxamide] stands 10.7 nM; under `CC(=O)NC1(C)CCN(c2cccn3nc(Nc4ccc(C(=O)N(C)C5CCN(C)CC5)cc4)nc23)CC1` [Example 1-260, 4-[[8-(4-acetamido-4-methylpiperidin-1-yl)-[1,2,4]-triazolo[1,5-a]pyridin-2-yl]amino]-N-methyl-N-(1-methylpiperidin-4-yl)benzamide], 16.3 nM; under `CN1CCC(N(C)C(=O)c2ccc(Nc3nc4c(N5CCC(C)(N(C)S(=O)(=O)c6ccccc6)CC5)cccn4n3)cc2)CC1` [Example 1-261], 3.56 nM.
On the same count and under the same terms, under `CN1CCC(N(C)C(=O)c2ccc(Nc3nc4c(N5CCC(CO)(CNCC(F)(F)F)CC5)cccn4n3)cc2)CC1` [Example 1-266, 4-([8-[4-(hydroxymethyl)-4-[[(2,2,2-trifluoroethyl)amino]methyl]piperidin-1-yl]-[1,2,4]triazolo[1,5-a]pyridin-2-yl]amino)-N-methyl-N-(1-methylpiperidin-4-yl)benzamide] stands 2.54 nM.
`CN1CCC(N(C)C(=O)c2ccc(Nc3nc4c(N5CCC(C(=O)O)(c6ccc(Cl)cc6)CC5)cccn4n3)cc2)CC1` [Example 1-269, 4-(4-chlorophenyl)-1-[2-([4-[methyl(1-methylpiperidin-4-yl)carbamoyl]phenyl]amino)-[1,2,4]-triazolo[1,5-a]pyridin-8-yl]piperidine-4-carboxylic acid]: the Ki was found to be 13.2 nM.
Still for that read-out and setting: in the case of `CN1CCC(N(C)C(=O)c2ccc(Nc3nc4c(N5CC6CC5CN6Cc5ccccc5)cccn4n3)cc2)CC1` (centres unmarked) [Example 1-293, 4-[[8-(5-benzyl-2,5-diazabicyclo[2.2.1]heptan-2-yl)-[1,2,4]triazolo[1,5-a]pyridin-2-yl]amino]-N-methyl-N-(1-methyl-4-piperidyl)benzamide] it was 110 nM; in that of `CN1CCC(N(C)C(=O)c2ccc(Nc3nc4c(N5CCC(C)(NC(=O)c6ccccc6)CC5)cccn4n3)cc2)CC1` [Example 1-302, 4-[[8-(4-benzamido-4-methyl-1-piperidyl)-[1,2,4]triazolo[1,5-a]pyridin-2-yl]amino]-N-methyl-N-(1-methyl-4-piperidyl)benzamide], 6.37 nM; in that of `CN1CCC(N(C)C(=O)c2ccc(Nc3nc4c(N5CCC(C)(NS(=O)(=O)c6ccccc6)CC5)cccn4n3)cc2)CC1` [Example 1-303, 4-[[8-[4-(benzenesulfonamido)-4-methyl-1-piperidyl]-[1,2,4]triazolo[1,5-a]pyridin-2-yl]amino]-N-methyl-N-(1-methyl-4-piperidyl)benzamide], 4.98 nM.
In the case of `NCC1(c2ccccc2)CCN(c2cccn3nc(NC(=O)C4CC4)nc23)CC1` [Example 3-1, N-[8-[4-(aminomethyl)-4-phenyl-1-piperidyl]-[1,2,4]triazolo[1,5-a]pyridin-2-yl]cyclopropane carboxamide; hydrochloride], the inhibition constant (Ki) stood at 145 nM.
